From paper PMC6715447 (Science (New York, N.Y.), 2019) come the findings set out here.

The target of the assay is T1, cysteamine (2-aminoethanethiol) dioxygenase (ADO) (Homo sapiens, UniProt Q96SZ5).
T1 sequence (Q96SZ5 1-270): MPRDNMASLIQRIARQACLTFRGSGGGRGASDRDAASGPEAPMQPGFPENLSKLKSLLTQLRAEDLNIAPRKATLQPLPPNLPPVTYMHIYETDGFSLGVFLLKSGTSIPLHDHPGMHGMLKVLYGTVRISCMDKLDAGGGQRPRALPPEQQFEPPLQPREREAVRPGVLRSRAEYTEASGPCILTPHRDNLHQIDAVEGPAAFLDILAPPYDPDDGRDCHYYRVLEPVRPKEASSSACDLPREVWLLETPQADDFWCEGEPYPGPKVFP
Description: competition of N-Cys peptide dioxygenation by recombinant ADO. The assay is classed as biochemical.

Broadly, the IC50 is the midpoint of a concentration-inhibition curve. Turning to `N[C@@H](CS)C(=O)O` [cysteine], the IC50 amounted to 13 mM.
Take `NCCS` [cysteamine]: the IC50 turned out to be 37 mM.
